Laboratory results from patent US12600709B2, “Nonpeptide somatostatin type 5 receptor agonists and uses thereof” (Crinetics Pharmaceuticals, Inc., priority 2019, dated 2026).
Where two headings read alike, the source gives them in different places.

Columns and labels:
[1] = biological target: T1, human somatostatin receptor subtype 5 (Homo sapiens, UniProt P35346); experiment: cAMP assay for SST5R (inhibition of cAMP in CHO-K1 cells); type: cell-based; details: for EC50: inhibition of cAMP via human SST5 receptor, read-out: SST5 potency
T1 construct: expressed in transfected cells
In short: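 CHO-K1 cells stably expressing human SSTR5 were treated 20 min at 37 °C with compounds plus 1.6 μM NKH477 in HBSS, 0.5 mM HEPES pH 7.4, 0.1% BSA, 0.2 mM IBMX. Lysate cAMP measured by HTRF against a standard curve; EC50 from cAMP-versus-concentration plots.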

[2] = biological target: T2, human somatostatin receptor subtype 2 (Homo sapiens, UniProt P30874); experiment: cAMP assay for SST2R (inhibition of cAMP in CHO-K1 cells); type: cell-based; details: Table B; inhibition of cAMP via human SST2 receptor; read-out: SST2 potency
T2 construct: expressed in transfected cells
In short: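 Agonism read as decrease in NKH477 (1.6 μM)-stimulated cAMP: compounds applied 20 min, 37° C, with 0.2 mM IBMX, to CHO-K1 stably expressing human SSTR2. cAMP quantified in lysates by time-resolved fluorescence (HTRF kit, 1-24 h RT), standard-curve regression, then EC50.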

[3] = Table B, class symbols, SST5 receptor over SST2 receptor

T2 sequence (P30874 whole entry): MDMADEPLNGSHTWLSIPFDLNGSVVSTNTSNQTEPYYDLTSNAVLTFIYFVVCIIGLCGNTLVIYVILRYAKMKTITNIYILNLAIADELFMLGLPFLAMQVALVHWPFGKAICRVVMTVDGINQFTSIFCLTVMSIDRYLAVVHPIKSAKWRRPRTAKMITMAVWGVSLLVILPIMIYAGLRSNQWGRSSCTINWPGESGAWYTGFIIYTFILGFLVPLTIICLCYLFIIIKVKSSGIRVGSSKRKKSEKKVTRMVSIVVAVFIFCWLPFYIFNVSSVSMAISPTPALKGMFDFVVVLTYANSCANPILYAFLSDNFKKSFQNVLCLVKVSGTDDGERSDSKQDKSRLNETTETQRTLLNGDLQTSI
T1 sequence (P35346 whole entry): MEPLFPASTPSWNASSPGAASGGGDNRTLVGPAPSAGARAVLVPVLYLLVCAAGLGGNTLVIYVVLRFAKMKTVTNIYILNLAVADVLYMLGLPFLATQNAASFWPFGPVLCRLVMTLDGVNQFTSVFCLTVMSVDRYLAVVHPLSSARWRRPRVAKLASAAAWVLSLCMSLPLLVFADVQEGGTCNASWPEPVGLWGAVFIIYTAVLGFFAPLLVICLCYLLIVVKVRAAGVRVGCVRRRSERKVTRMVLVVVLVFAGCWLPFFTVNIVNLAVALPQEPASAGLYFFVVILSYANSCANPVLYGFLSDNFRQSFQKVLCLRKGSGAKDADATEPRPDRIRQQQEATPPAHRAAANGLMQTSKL

SMILES	EC50 ([1]; Table B)	Fold selectivity for SST5 vs SST2 ([1]; Table B, numeric values for comparison compounds)	EC50 [2]	EC50 ([1]; Table A)	Fold selectivity for SST5 vs SST2 [1, 3]
Cc1cc(C)cc(-c2cncc(NC(=O)c3ccc(F)c(Cl)c3)c2N2CCC(CN)C2)c1 (stereo not drawn) [N-(4-(3-(aminomethyl)pyrrolidin-1-yl)-5-(3,5-dimethylphenyl)pyridin-3-yl)-3-chloro-4-fluorobenzamide, reference compound]	> 1000 nM	0.0055	< 10 nM	–	–
Cc1cccc2[nH]c(-c3cncc(C(=O)N4CCCC4C4CC4)c3N3CC[C@](C)(N)C3)nc12 (stereo partly drawn) [2-43, (3S)-1-[3-(2-cyclopropylpyrrolidine-1-carbonyl)-5-(4-methyl-1H-1,3-benzodiazol-2-yl)pyridin-4-yl]-3-methylpyrrolidin-3-amine]	< 10 nM	–	10 to 100 nM	< 10 nM	+ (+=10 to 99)
COc1ncc(C(=O)N[C@@H](C)C(F)(F)F)c(N2CC[C@](C)(N)C2)c1-c1ccc(F)c(Cl)c1 [1-261, 4-[(3S)-3-amino-3-methylpyrrolidin-1-yl]-5-(3-chloro-4-fluorophenyl)-6-methoxy-N-[(2S)-1,1,1-trifluoropropan-2-yl]pyridine-3-carboxamide]	< 10 nM	–	100 to 1000 nM	< 10 nM	+++ (+++=>500)
C[C@H](NC(=O)c1cncc(-c2cc(F)cc(F)c2)c1N1CC[C@](C)(N)C1)C(F)(F)F [1-54, 4-[(3S)-3-amino-3-methylpyrrolidin-1-yl]-5-(3,5-difluorophenyl)-N-[(2S)-1,1,1-trifluoropropan-2-yl]pyridine-3-carboxamide]	< 10 nM	–	100 to 1000 nM	< 10 nM	++ (++=100 to 499)
CCC(CC)NC(=O)c1cnc(C#N)c(-c2ccnc(C(F)(F)F)c2)c1N1CC[C@](C)(N)C1 [1-249, 4-[(3S)-3-amino-3-methylpyrrolidin-1-yl]-2-cyano-N-(pentan-3-yl)-2′-(trifluoromethyl)-[3,4′-bipyridine]-5-carboxamide]	< 10 nM	–	100 to 1000 nM	< 10 nM	+++ (+++=>500)
COc1ncc(C(=O)N[C@@H](C)C2CC2)c(N2CC[C@](C)(N)C2)c1-c1cccc(OC(F)(F)F)c1 [1-154, 4-[(3S)-3-amino-3-methylpyrrolidin-1-yl]-N-[(1S)-1-cyclopropylethyl]-6-methoxy-5-[3-(trifluoromethoxy)phenyl]pyridine-3-carboxamide]	< 10 nM	–	> 1000 nM	< 10 nM	+++ (+++=>500)
CCCCNC(=O)c1cnc(C#N)c(-c2ccnc(C(F)(F)F)c2)c1N1CC[C@](C)(N)C1 [1-251, 4-[(3S)-3-amino-3-methylpyrrolidin-1-yl]-N-butyl-2-cyano-2′-(trifluoromethyl)-[3,4′-bipyridine]-5-carboxamide]	< 10 nM	–	> 1000 nM	< 10 nM	+++ (+++=>500)
C[C@H](NC(=O)c1cnc(OCC(=O)O)c(-c2cc(F)cc(F)c2)c1N1CC[C@](C)(N)C1)C1CC1 [1-247, 2-({4-[(3S)-3-amino-3-methylpyrrolidin-1-yl]-5-{[(1S)-1-cyclopropylethyl]carbamoyl}-3-(3,5-difluorophenyl)pyridin-2-yl}oxy)acetic acid]	< 10 nM	–	> 1000 nM	< 10 nM	+++ (+++=>500)
Cc1cc(C)cc(NC(=O)c2cncc(-c3cc(C)cc(C)c3)c2N2CC[C@@H](N)C2)c1 (single isomer, unassigned) [1-2]	10 to 100 nM	–	< 10 nM	10 to 100 nM	–
C[C@]1(N)CCN(c2c(C(=O)NCc3ccccc3O)cnc(C#N)c2-c2cc(F)cc(F)c2)C1 [1-115, 4-[(3S)-3-amino-3-methylpyrrolidin-1-yl]-6-cyano-5-(3,5-difluorophenyl)-N-[(2-hydroxyphenyl)methyl]pyridine-3-carboxamide]	< 10 nM	–	> 1000 nM	< 10 nM	+++ (+++=>500)
Cc1cccc2[nH]c(-c3cncc(C(=O)N[C@@H](C)C(F)(F)F)c3N3CC[C@](C)(N)C3)nc12 [2-11, 4-[(3S)-3-amino-3-methylpyrrolidin-1-yl]-5-(4-methyl-1H-1,3-benzodiazol-2-yl)-N-[(2S)-1,1,1-trifluoropropan-2-yl]pyridine-3-carboxamide]	< 10 nM	–	10 to 100 nM	< 10 nM	+ (+=10 to 99)
C[C@H](NC(=O)c1cnc(C#N)c(-c2cc(F)cc(F)c2)c1N1CC[C@](C)(N)C1)C1CC1 [1-77, 4-[(3S)-3-amino-3-methylpyrrolidin-1-yl]-6-cyano-N-[(1S)-1-cyclopropylethyl]-5-(3,5-difluorophenyl)pyridine-3-carboxamide]	< 10 nM	–	10 to 100 nM	< 10 nM	+++ (+++=>500)
COc1ncc(C(=O)NC23CC(F)(C2)C3)c(N2CC[C@](C)(N)C2)c1-c1cc(F)cc(F)c1 [1-273, 4-[(3S)-3-amino-3-methylpyrrolidin-1-yl]-5-(3,5-difluorophenyl)-N-{3-fluorobicyclo[1.1.1]pentan-1-yl}-6-methoxypyridine-3-carboxamide]	< 10 nM	–	100 to 1000 nM	< 10 nM	+++ (+++=>500)
Cc1ncc(C(=O)NC2CC(F)(F)C2)c(N2CC[C@](C)(N)C2)c1-c1cc(F)cc(OC(F)F)c1 [1-172, 4-[(3S)-3-amino-3-methylpyrrolidin-1-yl]-N-(3,3-difluorocyclobutyl)-5-[3-(difluoromethoxy)-5-fluorophenyl]-6-methylpyridine-3-carboxamide]	< 10 nM	–	100 to 1000 nM	< 10 nM	+++ (+++=>500)
Cc1ncc(-c2c(C#N)ncc(C(=O)N[C@@H](C)C3CC3)c2N2CC[C@](C)(N)C2)s1 [1-128, 4-[(3S)-3-amino-3-methylpyrrolidin-1-yl]-6-cyano-N-[(1S)-1-cyclopropylethyl]-5-(2-methyl-1,3-thiazol-5-yl)pyridine-3-carboxamide]	< 10 nM	–	100 to 1000 nM	< 10 nM	+++ (+++=>500)
Cc1ncc(C(=O)N[C@@H](C)C2CC2)c(N2CC[C@](C)(N)C2)c1-c1cncc(F)c1 [1-160, 4-[(3S)-3-amino-3-methylpyrrolidin-1-yl]-N-[(1S)-1-cyclopropylethyl]-5′-fluoro-2-methyl-[3,3′-bipyridine]-5-carboxamide]	< 10 nM	–	100 to 1000 nM	< 10 nM	+++ (+++=>500)
C[C@]1(N)CCN(c2c(C(=O)NCc3ncccn3)cnc(C#N)c2-c2cc(F)cc(F)c2)C1 [1-108, 4-[(3S)-3-amino-3-methylpyrrolidin-1-yl]-6-cyano-5-(3,5-difluorophenyl)-N-[(pyrimidin-2-yl)methyl]pyridine-3-carboxamide]	< 10 nM	–	> 1000 nM	< 10 nM	+++ (+++=>500)
Cc1ncc(C(=O)N[C@@H](C)C2CC2)c(N2CC[C@](C)(N)C2)c1-c1cc(F)cc(C#N)c1 [1-123, 4-[(3S)-3-amino-3-methylpyrrolidin-1-yl]-5-(3-cyano-5-fluorophenyl)-N-[(1S)-1-cyclopropylethyl]-6-methylpyridine-3-carboxamide]	< 10 nM	–	100 to 1000 nM	< 10 nM	+++ (+++=>500)
COc1cc(-c2c(C#N)ncc(C(=O)NC3CCCC3)c2N2CC[C@](C)(N)C2)ccn1 [1-254, 4-[(3S)-3-amino-3-methylpyrrolidin-1-yl]-2-cyano-N-cyclopentyl-2′-methoxy-[3,4′-bipyridine]-5-carboxamide]	< 10 nM	–	> 1000 nM	< 10 nM	+++ (+++=>500)
CCOc1ncc(C(=O)N[C@@H](C)C2CC2)c(N2CC[C@](C)(N)C2)c1-c1cc(F)cc(F)c1 [1-176, 4-[(3S)-3-amino-3-methylpyrrolidin-1-yl]-N-[(1S)-1-cyclopropylethyl]-5-(3,5-difluorophenyl)-6-ethoxypyridine-3-carboxamide]	< 10 nM	–	100 to 1000 nM	< 10 nM	+++ (+++=>500)
Cc1cccc2[nH]c(-c3cncc(C(=O)N4C5CC6CC(C5)CC4C6)c3N3CC[C@](C)(N)C3)nc12 [2-26, (3S)-1-(3-{2-azatricyclo[3.3.1.1^3,7]decane-2-carbonyl}-5-(4-methyl-1H-1,3-benzodiazol-2-yl)pyridin-4-yl)-3-methylpyrrolidin-3-amine]	< 10 nM	–	100 to 1000 nM	< 10 nM	+++ (+++=>500)
C[C@H](NC(=O)c1cnc(C#N)c(-c2ccnc(C(F)(F)F)c2)c1N1CC[C@](C)(N)C1)C1CC1 [1-129, 4-[(3S)-3-amino-3-methylpyrrolidin-1-yl]-2-cyano-N-[(1S)-1-cyclopropylethyl]-2′-(trifluoromethyl)-[3,4′-bipyridine]-5-carboxamide]	< 10 nM	–	100 to 1000 nM	< 10 nM	+++ (+++=>500)
N#Cc1ncc(C(=O)NC(C2CC2)C2CC2)c(N2CC[C@H](N)C2)c1-c1cc(F)cc(F)c1 [1-70, 4-[(3S)-3-aminopyrrolidin-1-yl]-6-cyano-N-(dicyclopropylmethyl)-5-(3,5-difluorophenyl)pyridine-3-carboxamide]	< 10 nM	–	> 1000 nM	< 10 nM	+++ (+++=>500)
